Laboratory results published in US20200197320A1, “DRUG CARRIER AND DRUG DELIVERY SYSTEM THEREOF” (NATIONAL TSING HUA UNIVERSITY, priority 2018, published 2020).

Test system: MDA-MB-231 human breast cancer cells
Assay: Material cytotoxicity by MTT assay
Conditions: under the condition of the present disclosure, including products after UV irradiation
Experimental: Then the drug delivery systems of Example 1 with different concentrations are tested for their cytotoxicity. […] The MDA-MB-231 human breast cancer cells are treated with 0.1, 1, 2, 5, 10 and 20 μg/mL of the drug delivery system of Example 1 for 6 hours, respectively, and then further incubated for another 24 hours. The cell viability is measured by the MTT assay.

OCc1ccc2ccc3cccc4ccc1c2c34 [pyrenemethanol]
harm to the cells: not harmful
